pIC50: −log10 of the molar value. Structures can show the parent of a compound that is named as a salt.
What was measured:
TNKS2 = biological target: T1, TNKS2 (Homo sapiens, UniProt Q9H2K2); experiment: TNKS2 Assay B (auto-parsylation, [3H]-NAD+ SPA); format: biochemical; details: 6 nM TNKS2, auto-parsylation, over night at room temperature
T1 construct: purchased BPS Bioscience, San Diego, USA 80572 (TNKS2 Histone Ribosylation Assay Kit)
T1 sequence (Q9H2K2 1-1166): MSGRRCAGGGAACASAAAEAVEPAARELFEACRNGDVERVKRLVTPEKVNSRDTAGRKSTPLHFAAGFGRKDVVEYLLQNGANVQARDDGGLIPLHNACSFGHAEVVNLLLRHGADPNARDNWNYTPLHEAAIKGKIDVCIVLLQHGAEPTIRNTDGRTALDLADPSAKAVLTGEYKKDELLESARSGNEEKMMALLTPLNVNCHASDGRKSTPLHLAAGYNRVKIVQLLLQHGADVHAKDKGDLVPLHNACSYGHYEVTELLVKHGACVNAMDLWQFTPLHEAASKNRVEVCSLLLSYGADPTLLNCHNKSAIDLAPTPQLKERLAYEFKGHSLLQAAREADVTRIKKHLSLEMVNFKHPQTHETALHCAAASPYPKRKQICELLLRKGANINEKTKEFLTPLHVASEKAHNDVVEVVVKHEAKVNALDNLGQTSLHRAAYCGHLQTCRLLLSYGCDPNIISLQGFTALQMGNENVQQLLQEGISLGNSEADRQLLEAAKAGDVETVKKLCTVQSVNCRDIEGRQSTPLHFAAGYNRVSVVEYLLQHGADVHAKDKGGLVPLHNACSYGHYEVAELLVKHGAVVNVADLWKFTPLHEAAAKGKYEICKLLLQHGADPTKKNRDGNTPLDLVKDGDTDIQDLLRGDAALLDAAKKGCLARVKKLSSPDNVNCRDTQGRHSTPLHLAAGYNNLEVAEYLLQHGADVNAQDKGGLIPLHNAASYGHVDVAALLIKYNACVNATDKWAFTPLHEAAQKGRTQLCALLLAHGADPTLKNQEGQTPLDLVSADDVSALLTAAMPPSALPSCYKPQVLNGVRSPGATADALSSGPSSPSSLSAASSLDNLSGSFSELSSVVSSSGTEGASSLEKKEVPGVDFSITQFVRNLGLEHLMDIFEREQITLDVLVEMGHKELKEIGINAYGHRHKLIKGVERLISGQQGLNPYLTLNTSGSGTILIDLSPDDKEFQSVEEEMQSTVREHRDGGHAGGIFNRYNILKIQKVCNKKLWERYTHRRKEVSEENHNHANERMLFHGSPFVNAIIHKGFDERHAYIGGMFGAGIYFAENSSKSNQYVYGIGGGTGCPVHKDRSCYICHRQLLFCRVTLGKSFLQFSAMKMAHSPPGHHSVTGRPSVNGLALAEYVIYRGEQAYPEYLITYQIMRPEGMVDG

[1] = tested on: wildtype Wnt signaling cascade; experiment: HEK293 TOP assay (Super TopFlash luciferase reporter, Wnt-3a stimulated); format: cell-based; details: Homo sapiens, HEK293 TOP reporter cells, Wnt3a at EC50, 16 hours
Method in brief: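 HEK293 cells stably carrying Super TopFlash (TOP) run in parallel with FOP cells, 10000/well plated 24 h ahead, stimulated with recombinant human Wnt-3a. Compounds tested 50 μM to 15 nM in 3.16-fold steps in CAFTY buffer pH 7.4 with 2 mM Ca^2+ and 0.01% BSA; luciferase read-out.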

Row | pIC50 (TNKS2) | pIC50 ([1]; HEK293, 16 h) | Compound | pIC50 [1]
1 | 6.64 | 7.60 | O=C(NCCN1CCCCC1)c1nc[nH]c1C(=O)N[C@H]1CC[C@H](C(=O)Nc2ccc(F)cc2Cl)CC1 [Example 2, N^5-{trans-4-[(2-chloro-4-fluorophenyl)carbamoyl]cyclohexyl}-N^4-[2-(piperidin-1-yl)ethyl]-1H-imidazole-4,5-dicarboxamide] | 
2 | 5.17 | 5.74 | COCC(C)NC(=O)c1nc[nH]c1C(=O)N[C@H]1CC[C@H](C(=O)Nc2cc(N3CCOCC3)ccc2Cl)CC1 (stereo partly drawn) [Example 91, N^5-(trans-4-{[2-chloro-5-(morpholin-4-yl)phenyl]carbamoyl}cyclohexyl)-N^4-(1-methoxypropan-2-yl)-1H-imidazole-4,5-dicarboxamide] | 

Further lines, the compound ahead of its results:

Row | Compound | pIC50 (TNKS2) | pIC50 ([1]; HEK293, 16 h) | pIC50 [1]
3 | CNC(=O)c1[nH]cnc1C(=O)NC1CCC(C(=O)Nc2ccc(F)cc2Cl)CC1C (racemic) [Example 39, N^4-{4-[(2-chloro-4-fluorophenyl)carbamoyl]-2-methylcyclohexyl}-N^5-methyl-1H-imidazole-4,5-dicarboxamide] | 7.00 |  | 
4 | Cc1c(C(C)N(C)C)cnc2c(C(=O)N[C@H]3CC[C@H](C(=O)Nc4ccc(F)cc4Cl)CC3)cnn12 (mixture of isomers) [Example 55, N-{trans-4-[(2-chloro-4-fluorophenyl)carbamoyl]cyclohexyl}-6-[1-(dimethylamino)ethyl]-7-methylpyrazolo[1,5-a]pyrimidine-3-carboxamide formic acid salt] | 6.31 |  | 6.55
5 | CNC(C)c1cnc2c(C(=O)N[C@H]3CC[C@H](C(=O)Nc4ccc(F)cc4Cl)CC3)cnn2c1C (stereo partly drawn) [Example 54, N-{trans-4-[(2-chloro-4-fluorophenyl)carbamoyl]cyclohexyl}-7-methyl-6-[1-(methylamino)ethyl]pyrazolo[1,5-a]pyrimidine-3-carboxamide formic acid salt] | 6.17 |  | 6.21
